Test results taken from the NIST ThermoML archive (doi:10.1021/je030215z).

Experiments:
[1] = 298.15 K; 101.33 kPa; Liquid
[2] = excess molar enthalpy (molar enthalpy of mixing); xn = mol fraction of the nth substance listed; settings: 298.15 K, 101.33 kPa, Liquid, Flow calorimetry

CCCCCCC [heptane]
Settings	mass density [kg/m3]
[1]	680.17

CCCCCCCCCCCCCC [tetradecane] + C=CCCCC
[2]
Settings	excess molar enthalpy [kcal/mol]
x2 = 0.05	0.00618
x2 = 0.1001	0.0124
x2 = 0.1501	0.0179
x2 = 0.2003	0.0228
x2 = 0.2499	0.0271
x2 = 0.297	0.0305
x2 = 0.3497	0.0339
x2 = 0.4002	0.0363
x2 = 0.4498	0.0376
x2 = 0.5	0.0386
x2 = 0.5497	0.0387
x2 = 0.5998	0.038
x2 = 0.6495	0.0364
x2 = 0.6996	0.0339
x2 = 0.7502	0.0306
x2 = 0.7996	0.0264
x2 = 0.8498	0.0211
x2 = 0.8999	0.015
x2 = 0.95	0.00747

CCCCCCCCCCCCCC [tetradecane]
Settings	mass density [kg/m3]
[1]	759.36

C=CCCCC [hex-1-ene] + CCCCCCCCCC
[2]
Settings	excess molar enthalpy [kcal/mol]
x1 = 0.05	0.00385
x1 = 0.1	0.00726
x1 = 0.1503	0.0103
x1 = 0.2001	0.0129
x1 = 0.2482	0.0154
x1 = 0.2997	0.0174
x1 = 0.3504	0.019
x1 = 0.3999	0.0204
x1 = 0.4508	0.0211
x1 = 0.4994	0.0217
x1 = 0.5501	0.0217
x1 = 0.5996	0.0213
x1 = 0.6496	0.0204
x1 = 0.7004	0.019
x1 = 0.7495	0.0172
x1 = 0.7998	0.0149
x1 = 0.8501	0.0122
x1 = 0.9	0.00862
x1 = 0.95	0.00457

C=CCCCC [hex-1-ene] + CCCCCCCCCCCC
[2]
Settings	excess molar enthalpy [kcal/mol]
x1 = 0.0501	0.00512
x1 = 0.0999	0.00975
x1 = 0.15	0.0136
x1 = 0.1999	0.0174
x1 = 0.2521	0.0208
x1 = 0.2994	0.0235
x1 = 0.3494	0.0259
x1 = 0.4001	0.0277
x1 = 0.4503	0.0287
x1 = 0.5001	0.0293
x1 = 0.5505	0.0294
x1 = 0.5998	0.029
x1 = 0.6501	0.0278
x1 = 0.6999	0.026
x1 = 0.7499	0.0234
x1 = 0.8001	0.02
x1 = 0.8503	0.0162
x1 = 0.8999	0.0117
x1 = 0.95	0.00626

CCCCCCCCCCCC [dodecane]
Settings	mass density [kg/m3]
[1]	745.32

C=CCCCC [hex-1-ene] + CCCCCCC
[2]
Settings	excess molar enthalpy [kcal/mol]
x1 = 0.05	0.00266
x1 = 0.1	0.00507
x1 = 0.1499	0.00724
x1 = 0.1998	0.00898
x1 = 0.2496	0.0107
x1 = 0.2998	0.0121
x1 = 0.35	0.0131
x1 = 0.3984	0.0141
x1 = 0.4492	0.0146
x1 = 0.5005	0.0147
x1 = 0.5498	0.0147
x1 = 0.6	0.0143
x1 = 0.6496	0.0135
x1 = 0.6992	0.0126
x1 = 0.7497	0.0113
x1 = 0.8	0.00988
x1 = 0.8499	0.0079
x1 = 0.9	0.00559
x1 = 0.95	0.0028

CCCCCCCC [octane]
Settings	mass density [kg/m3]
[1]	698.72

CCCCCCCCCC [decane]
Settings	mass density [kg/m3]
[1]	726.3

C=CCCCC [hex-1-ene] + CCCCCCCC
[2]
Settings	excess molar enthalpy [kcal/mol]
x1 = 0.05	0.00272
x1 = 0.1	0.00532
x1 = 0.15	0.0078
x1 = 0.2036	0.00995
x1 = 0.2496	0.0115
x1 = 0.3	0.0131
x1 = 0.3497	0.0143
x1 = 0.3998	0.0153
x1 = 0.45	0.0158
x1 = 0.5	0.0162
x1 = 0.5499	0.0161
x1 = 0.5994	0.0157
x1 = 0.65	0.015
x1 = 0.6998	0.014
x1 = 0.7501	0.0126
x1 = 0.8002	0.0108
x1 = 0.8499	0.00882
x1 = 0.9	0.00628
x1 = 0.95	0.00332

C=CCCCC [hex-1-ene]
Settings	mass density [kg/m3]
[1]	668.73
